Experimental data taken from the NIST ThermoML archive (doi:10.1021/je3007666).
± gives the expanded uncertainty stated by the source.

Test: relative permittivity at zero frequency (dimensionless); xn = mol fraction of the nth substance listed
Conditions: 100 kPa, Liquid, Dielectrometer

CC(C)CO [2-methyl-1-propanol] + CC(C)(C)O
relative permittivity at zero frequency
Conditions	288.15 K	293.15 K	298.15 K	303.15 K	308.15 K
x2 = 0	19.51 ± 0.06	18.71 ± 0.06	17.96 ± 0.06	17.23 ± 0.06	16.53 ± 0.06
x2 = 0.0497	19.46 ± 0.06	18.65 ± 0.06	17.85 ± 0.06	17.09 ± 0.06	16.37 ± 0.06
x2 = 0.0999	19.37 ± 0.06	18.52 ± 0.06	17.74 ± 0.06	16.96 ± 0.06	16.21 ± 0.06
x2 = 0.1502	19.24 ± 0.06	18.38 ± 0.06	17.57 ± 0.06	16.78 ± 0.06	16.05 ± 0.06
x2 = 0.2002	19.09 ± 0.06	18.24 ± 0.06	17.43 ± 0.06	16.62 ± 0.06	15.84 ± 0.06
x2 = 0.2497	18.94 ± 0.06	18.08 ± 0.06	17.25 ± 0.06	16.42 ± 0.06	15.63 ± 0.06
x2 = 0.2998	18.78 ± 0.06	17.89 ± 0.06	17.08 ± 0.06	16.22 ± 0.06	15.44 ± 0.06
x2 = 0.3507	18.6 ± 0.06	17.71 ± 0.06	16.88 ± 0.06	16.01 ± 0.06	15.2 ± 0.06
x2 = 0.4003	18.43 ± 0.06	17.53 ± 0.06	16.7 ± 0.06	15.8 ± 0.06	14.97 ± 0.06
x2 = 0.4497	18.26 ± 0.06	17.36 ± 0.06	16.49 ± 0.06	15.57 ± 0.06	14.74 ± 0.06
x2 = 0.4998	18.11 ± 0.06	17.15 ± 0.06	16.3 ± 0.06	15.34 ± 0.06	14.47 ± 0.06
x2 = 0.5501	17.93 ± 0.06	16.96 ± 0.06	16.07 ± 0.06	15.07 ± 0.06	14.22 ± 0.06
x2 = 0.6012	17.74 ± 0.06	16.74 ± 0.06	15.83 ± 0.06	14.8 ± 0.06	13.93 ± 0.06
x2 = 0.649	17.53 ± 0.06	16.5 ± 0.06	15.58 ± 0.06	14.52 ± 0.06	13.61 ± 0.06
x2 = 0.7003	17.3 ± 0.06	16.24 ± 0.06	15.28 ± 0.06	14.2 ± 0.06	13.27 ± 0.06
x2 = 0.751	17.02 ± 0.06	15.93 ± 0.06	14.96 ± 0.06	13.84 ± 0.06	12.91 ± 0.06
x2 = 0.8007	16.68 ± 0.06	15.59 ± 0.06	14.59 ± 0.06	13.46 ± 0.06	12.49 ± 0.06
x2 = 0.8499	16.3 ± 0.06	15.17 ± 0.06	14.17 ± 0.06	13.03 ± 0.06	12.06 ± 0.06
x2 = 0.9002	15.8 ± 0.06	14.67 ± 0.06	13.69 ± 0.06	12.53 ± 0.06	11.55 ± 0.06
x2 = 0.9489	15.21 ± 0.06	14.08 ± 0.06	13.13 ± 0.06	11.97 ± 0.06	11.01 ± 0.06

CC(C)CO [2-methyl-1-propanol] + CCC(C)O
relative permittivity at zero frequency
Conditions	288.15 K	293.15 K	298.15 K	303.15 K	308.15 K
x2 = 0	19.51 ± 0.06	18.71 ± 0.06	17.96 ± 0.06	17.23 ± 0.06	16.53 ± 0.06
x2 = 0.0488	19.46 ± 0.06	18.66 ± 0.06	17.9 ± 0.06	17.17 ± 0.06	16.47 ± 0.06
x2 = 0.1011	19.41 ± 0.06	18.61 ± 0.06	17.85 ± 0.06	17.11 ± 0.06	16.4 ± 0.06
x2 = 0.1488	19.36 ± 0.06	18.55 ± 0.06	17.78 ± 0.06	17.05 ± 0.06	16.34 ± 0.06
x2 = 0.2005	19.31 ± 0.06	18.49 ± 0.06	17.72 ± 0.06	16.98 ± 0.06	16.27 ± 0.06
x2 = 0.2489	19.25 ± 0.06	18.43 ± 0.06	17.66 ± 0.06	16.92 ± 0.06	16.2 ± 0.06
x2 = 0.3013	19.2 ± 0.06	18.38 ± 0.06	17.59 ± 0.06	16.85 ± 0.06	16.13 ± 0.06
x2 = 0.3511	19.14 ± 0.06	18.31 ± 0.06	17.53 ± 0.06	16.78 ± 0.06	16.05 ± 0.06
x2 = 0.3993	19.09 ± 0.06	18.25 ± 0.06	17.46 ± 0.06	16.7 ± 0.06	15.97 ± 0.06
x2 = 0.4473	19.03 ± 0.06	18.19 ± 0.06	17.39 ± 0.06	16.63 ± 0.06	15.89 ± 0.06
x2 = 0.4984	18.98 ± 0.06	18.13 ± 0.06	17.32 ± 0.06	16.56 ± 0.06	15.81 ± 0.06
x2 = 0.5512	18.92 ± 0.06	18.06 ± 0.06	17.25 ± 0.06	16.48 ± 0.06	15.73 ± 0.06
x2 = 0.5999	18.87 ± 0.06	18 ± 0.06	17.18 ± 0.06	16.4 ± 0.06	15.65 ± 0.06
x2 = 0.649	18.81 ± 0.06	17.94 ± 0.06	17.1 ± 0.06	16.32 ± 0.06	15.56 ± 0.06
x2 = 0.7017	18.76 ± 0.06	17.88 ± 0.06	17.03 ± 0.06	16.24 ± 0.06	15.48 ± 0.06
x2 = 0.7502	18.71 ± 0.06	17.81 ± 0.06	16.96 ± 0.06	16.16 ± 0.06	15.39 ± 0.06
x2 = 0.7989	18.66 ± 0.06	17.75 ± 0.06	16.89 ± 0.06	16.08 ± 0.06	15.3 ± 0.06
x2 = 0.851	18.61 ± 0.06	17.69 ± 0.06	16.81 ± 0.06	16 ± 0.06	15.21 ± 0.06
x2 = 0.9003	18.56 ± 0.06	17.63 ± 0.06	16.74 ± 0.06	15.92 ± 0.06	15.12 ± 0.06
x2 = 0.9499	18.51 ± 0.06	17.57 ± 0.06	16.67 ± 0.06	15.83 ± 0.06	15.03 ± 0.06

CC(C)CO [2-methyl-1-propanol] + CCCCO
relative permittivity at zero frequency
Conditions	288.15 K	293.15 K	298.15 K	303.15 K	308.15 K
x1 = 0.0505	19.03 ± 0.06	18.3 ± 0.06	17.59 ± 0.06	16.92 ± 0.06	16.26 ± 0.06
x1 = 0.1011	19.05 ± 0.06	18.31 ± 0.06	17.61 ± 0.06	16.93 ± 0.06	16.27 ± 0.06
x1 = 0.1496	19.06 ± 0.06	18.33 ± 0.06	17.62 ± 0.06	16.94 ± 0.06	16.28 ± 0.06
x1 = 0.2001	19.08 ± 0.06	18.34 ± 0.06	17.63 ± 0.06	16.95 ± 0.06	16.29 ± 0.06
x1 = 0.2488	19.1 ± 0.06	18.36 ± 0.06	17.65 ± 0.06	16.97 ± 0.06	16.31 ± 0.06
x1 = 0.3011	19.12 ± 0.06	18.38 ± 0.06	17.66 ± 0.06	16.98 ± 0.06	16.32 ± 0.06
x1 = 0.3497	19.14 ± 0.06	18.4 ± 0.06	17.68 ± 0.06	16.99 ± 0.06	16.33 ± 0.06
x1 = 0.399	19.16 ± 0.06	18.41 ± 0.06	17.7 ± 0.06	17.01 ± 0.06	16.34 ± 0.06
x1 = 0.4511	19.18 ± 0.06	18.43 ± 0.06	17.71 ± 0.06	17.02 ± 0.06	16.36 ± 0.06
x1 = 0.5021	19.21 ± 0.06	18.44 ± 0.06	17.73 ± 0.06	17.04 ± 0.06	16.37 ± 0.06
x1 = 0.5489	19.23 ± 0.06	18.46 ± 0.06	17.75 ± 0.06	17.06 ± 0.06	16.39 ± 0.06
x1 = 0.6004	19.26 ± 0.06	18.5 ± 0.06	17.77 ± 0.06	17.07 ± 0.06	16.4 ± 0.06
x1 = 0.6488	19.28 ± 0.06	18.52 ± 0.06	17.79 ± 0.06	17.09 ± 0.06	16.42 ± 0.06
x1 = 0.6975	19.31 ± 0.06	18.55 ± 0.06	17.81 ± 0.06	17.11 ± 0.06	16.43 ± 0.06
x1 = 0.751	19.34 ± 0.06	18.57 ± 0.06	17.83 ± 0.06	17.13 ± 0.06	16.45 ± 0.06
x1 = 0.8004	19.37 ± 0.06	18.6 ± 0.06	17.86 ± 0.06	17.15 ± 0.06	16.46 ± 0.06
x1 = 0.848	19.4 ± 0.06	18.62 ± 0.06	17.88 ± 0.06	17.17 ± 0.06	16.48 ± 0.06
x1 = 0.8995	19.43 ± 0.06	18.65 ± 0.06	17.9 ± 0.06	17.19 ± 0.06	16.5 ± 0.06
x1 = 0.9506	19.47 ± 0.06	18.68 ± 0.06	17.93 ± 0.06	17.21 ± 0.06	16.52 ± 0.06
x1 = 1	19.51 ± 0.06	18.71 ± 0.06	17.96 ± 0.06	17.23 ± 0.06	16.53 ± 0.06

CC(C)(C)O [2-methylpropan-2-ol] + CCC(C)O
relative permittivity at zero frequency
Conditions	288.15 K	293.15 K	298.15 K	303.15 K	308.15 K
x1 = 0.0511	18.35 ± 0.06	17.39 ± 0.06	16.47 ± 0.06	15.62 ± 0.06	14.8 ± 0.06
x1 = 0.1003	18.24 ± 0.06	17.25 ± 0.06	16.35 ± 0.06	15.46 ± 0.06	14.64 ± 0.06
x1 = 0.1512	18.11 ± 0.06	17.13 ± 0.06	16.22 ± 0.06	15.31 ± 0.06	14.47 ± 0.06
x1 = 0.199	17.97 ± 0.06	16.98 ± 0.06	16.06 ± 0.06	15.15 ± 0.06	14.28 ± 0.06
x1 = 0.2498	17.85 ± 0.06	16.83 ± 0.06	15.92 ± 0.06	14.98 ± 0.06	14.1 ± 0.06
x1 = 0.3007	17.71 ± 0.06	16.67 ± 0.06	15.77 ± 0.06	14.79 ± 0.06	13.92 ± 0.06
x1 = 0.35	17.55 ± 0.06	16.54 ± 0.06	15.6 ± 0.06	14.62 ± 0.06	13.75 ± 0.06
x1 = 0.3997	17.42 ± 0.06	16.36 ± 0.06	15.44 ± 0.06	14.44 ± 0.06	13.54 ± 0.06
x1 = 0.4502	17.25 ± 0.06	16.19 ± 0.06	15.27 ± 0.06	14.25 ± 0.06	13.34 ± 0.06
x1 = 0.5011	17.09 ± 0.06	16 ± 0.06	15.09 ± 0.06	14.05 ± 0.06	13.14 ± 0.06
x1 = 0.5497	16.89 ± 0.06	15.83 ± 0.06	14.9 ± 0.06	13.84 ± 0.06	12.92 ± 0.06
x1 = 0.6007	16.7 ± 0.06	15.64 ± 0.06	14.72 ± 0.06	13.62 ± 0.06	12.7 ± 0.06
x1 = 0.6511	16.5 ± 0.06	15.42 ± 0.06	14.5 ± 0.06	13.41 ± 0.06	12.47 ± 0.06
x1 = 0.701	16.28 ± 0.06	15.17 ± 0.06	14.26 ± 0.06	13.17 ± 0.06	12.23 ± 0.06
x1 = 0.7497	16.03 ± 0.06	14.93 ± 0.06	14.03 ± 0.06	12.89 ± 0.06	11.96 ± 0.06
x1 = 0.8005	15.76 ± 0.06	14.68 ± 0.06	13.78 ± 0.06	12.63 ± 0.06	11.68 ± 0.06
x1 = 0.8488	15.49 ± 0.06	14.39 ± 0.06	13.5 ± 0.06	12.32 ± 0.06	11.39 ± 0.06
x1 = 0.9003	15.19 ± 0.06	14.07 ± 0.06	13.18 ± 0.06	12.01 ± 0.06	11.07 ± 0.06
x1 = 0.9496	14.84 ± 0.06	13.72 ± 0.06	12.84 ± 0.06	11.68 ± 0.06	10.74 ± 0.06
x1 = 1	14.49 ± 0.06	13.38 ± 0.06	12.49 ± 0.06	11.34 ± 0.06	10.4 ± 0.06
